Source: patent US20050003998A1, “Therapeutic use of selective LXR modulators” (priority 2002, published 2005)
“Also recorded” adds a separate entry of the source.

Assays:
[1] = system: mouse adult neural stem cells derived from the lateral ventricle wall; assay: Intracellular ATP assay on adult mouse neurosphere cultures; format: cell-based; conditions: for intracellular ATP levels, and hence cell number (adult mouse NSC proliferation or survival in vitro): 3 days, non-adherent conditions, values normalized to the vehicle (100%)
Protocol: The anterior lateral wall of the lateral ventricle of 5-6 week old mice was enzymatically dissociated in 0.8mg/ml hyaluronidase and 0.5 mg/ml trypsin in DMEM containing 4.5 mg/ml glucose and 80units/ml DNase at 37° C. for 20 min. The cells were gently triturated and mixed with three volumes of Neurosphere medium (DMEM/F12, B27 supplement, 12.5 mM HEPES pH7.4) containing 20 ng/ml EGF (unless otherwise stated), 100units/ml penicillin and 100 μg/ml streptomycin. After passing through a 70 μm strainer, the cells were pelleted at 160×g for 5 min. The supernatant was subsequently removed and the cells resuspended in Neurosphere medium supplemented as above, plated out in culture dishes and incubated at 37° C. Neurospheres were ready to be split approximately 7 days after plating.
To split neurosphere cultures, neurospheres were collected by centrifugation at 160×g for 5 min. The neurospheres were resuspended in 0.5 ml Trypsin/EDTA in HBSS (1×), incubated at 37° C. for 2 min and triturated gently to aid dissociation. Following a further 3 min incubation at 37° C. and trituration, 3 volumes of ice cold NSPH-media-EGF were added to stop further trypsin activity. The cells were pelleted at 220×g for 4 min, resuspended in fresh Neurosphere medium supplemented with 20 ng/ml EGF and 1 nM bFGF plated out and incubated at 37° C.
Mouse neurospheres, cultured as described above, from passage 2, were seeded in DMEM/F12 supplemented with B27 into a 96-well plate as single cells (10000 cells/well) to the substances to be measured were added at the concentrations indicated. After 3 days incubation, intracellular ATP was measured using the ATP-SL kit from BioThema, Sweden, according to the manufacturer's instructions. The LXR agonists: 5-Cholesten-24(s), 25-epoxy-3b-ol were purchased from Steraloids (no C6640-000): TO-901317 were purchased from Sigma-Aldrich (no T2320). The RXR agonist cis-4,7,10,13,16,19-Docosahexaenoic acid (DHA) were purchased from Sigma-Aldrich (no 43938). […]

[2] = system: irritant dermatitis; conditions: phorbol 12-myristate-13-acetate on ears of CD1 mice; cited from earlier work
[3] = system: phospholipase A2 (PLA2); conditions: cited from earlier work; for PLA2 enzymatic activity / PLA2 mRNA: rat smooth muscle cells
[4] = system: rat pheochromocytoma cells; conditions: cited from earlier work
[5] = system: beta-amyloid induced apoptosis; conditions: Alzheimer's disease; cited from earlier work
[6] = system: cells in the LVW; assay: Oral administration of TO-901317 in chow, BrdU incorporation in the lateral ventricle wall; format: in vivo, C57BL/6J male mice; conditions: 4.3 and 43 mg/kg/day, mouse
Protocol: (§1) C57BL/6J male mice were housed under controlled temperature and humidity and had free access to water and chow. 40 mice were divided into 5 groups (n=8). Group 1 received chow mixed with 0.025% T0901317 (Sigma-Aldrich) ad libitum for 10 days (dose previously show to be effective for brain activity of the compound). On day 7 and 8 the animals received a single injection of 5-bromodeoxyuridine, 100 mg/kg i.p., respectively and were sacrificed on day 10 by means of cervical dislocation.
Group 2 received identical treatment except that the chow in this case contained 0.0025% T0901317. […] No correlation between weight gain, food intake or BrdU incorporation could be detected. […]
(§2) Brains were cut into 14-μm coronal sections using a cryostat-microtome. […] After 1 hour of washing, the BrdU-antibody complex was detected using 0.05% diaminobenzidine with 0.01% H2O2, and counterstained with Hematoxylin. […]
(§3) For all BrdU labeling experiments, three to six sections per animal were analyzed. BrdU-positive cells were counted along 2×250 micrometer strips of the lateral ventricle wall (including the ependymal cell layer and subventricular zone). […] The numbers of BrdU-positive cells are calculated per area (mm^2). The mean ± SEM were calculated. Differences between means were determined by one-way ANOVA.

[7] = system: cells in the LVW; assay: Intracerebroventricular infusion of TO-901317, BrdU incorporation in the lateral ventricle wall; format: in vivo, male Wistar rats; conditions: icv infusion 0.6 nmol/animal/day, 14 days, rat; calculated day concentration 0.2 μM
Protocol: 10 week old male Wistar rats maintained on a 12hr light/dark cycle with food and water ad libidum, were infused in the right lateral ventricle with TO-901317 (Sigma-Aldrich), using an Alzet pump (2002), 14 days at a daily dose of 0.6 nmol/animal/day (infused at a rate of 0.5 μl/hr; 50 μM solution). Bromodeoxyuridine (BrdU) (50 mg/ml) was also included in the infusion vehicle (0.9% saline containing 1 mg/ml mouse serum albumin (Sigma)) to enable measurement of proliferation by quantitation of BrdU incorporation in the DNA. Animals were sacrificed at day 14, perfused with PBS and the brains removed and frozen at −70° C. prior to sectioning for immumohistochemical analysis.
as §2, with “cryostat-microtome. The sections were thawed onto pretreated slides and fixed in 4% (wt/vol) paraformaldehyde/PBS for 10 min.” for “cryostat-microtome.”
as §3

[8] = Weight gain and food intake during oral administration; format: in vivo, C57BL/6J male mice; conditions: chow with 0.025% or 0.0025% compound, mouse
Protocol: as §1
Group 2 received identical treatment except that the chow in this case contained 0.0025% T0901317. Group 3 and 4 received identical treatments as groups 1 and 2, respectively, with the exception that these animals received 5-bromodeoxyuridine injections on day 1 and 2 after the initiation of the experiment and were sacrificed on day 4. Group 5 served as control and received chow without any T0901317 but identical to groups 1-4 received two daily injections of 5-bromodeoxyuridine 100 mg/kg i.p. and was sacrificed two days later. The mean daily intake was 4.25±0.13 (S.E.M.) g chow, and the mean weight of the animals 24.8±0.11 (S.E.M.) g during the cause of the experiment resulting in an average dose of 43 mg/kg/day for groups 1 and 3 (“High”), and an average dose of 4.3 mg/kg/day for groups 2 and 4 (“Low”). […] No correlation between weight gain, food intake or BrdU incorporation could be detected. […]

Row | SMILES | intracellular ATP levels, and hence cell number (adult mouse NSC proliferation or survival in vitro) [1] | irritant dermatitis [2] | PLA2 enzymatic activity [3] | PLA2 mRNA [3] | neuronal differentiation measured as neurite outgrowth [4] | also measured
1 | C[C@H](CC[C@@H]1OC1(C)C)[C@H]1CC[C@H]2[C@@H]3CC=C4C[C@@H](O)CC[C@]4(C)[C@H]3CC[C@]12C [5-Cholesten-24(s), 25-epoxy-3b-ol] | mediates adult mouse NSC proliferation or survival in vitro |  |  |  |  | 
2 | CC(C)CC[C@@H](O)[C@@H](C)[C@H]1CC[C@H]2[C@@H]3CC=C4C[C@@H](O)CC[C@]4(C)[C@H]3CC[C@]12C [22(R)-hydroxycholesterol] |  | able to reduce irritant dermatitis | increased enzymatic activity | accumulation of PLA2 mRNA | induces neuronal differentiation | PLA2 promoter activity ([3]; transient transfection, in combination with 9-cis-retinoic acid): synergistically activated; beta-amyloid induced apoptosis [5]: prevention of beta-amyloid induced apoptosis
3 | C[C@H](CCCC(C)(C)O)[C@H]1CC[C@H]2[C@@H]3CC=C4C[C@@H](O)CC[C@]4(C)[C@H]3CC[C@]12C [25-hydroxycholesterol] |  | able to reduce irritant dermatitis | increased enzymatic activity | accumulation of PLA2 mRNA |  | 
4 | O=C(O)Cc1cccc(OCCCN(Cc2cccc(C(F)(F)F)c2Cl)CC(c2ccccc2)c2ccccc2)c1 [GW3965] |  | able to reduce irritant dermatitis |  |  |  | 
5 | O=S(=O)(c1ccccc1)N(CC(F)(F)F)c1ccc(C(O)(C(F)(F)F)C(F)(F)F)cc1 [TO-901317] | mediates adult mouse NSC proliferation or survival in vitro |  |  |  |  | concentration-response relationship observed in vitro with cultured mouse NSC ([1]; Example 2, effective concentrations): 3 to 5 µM; incorporation of BrdU of cells in the LVW [6]: significantly decreased; also recorded: clearly effective; incorporation of BrdU in the LVW [7]: did not significantly change; also recorded: ineffective; weight gain or food intake [8]: No difference between groups
6 | CCCCCCCCCCCCCCOc1ccc(C(=O)O)o1 [TOFA, 5-tetradecyloxy-2-furancarboxylic acid] |  |  |  |  | induces neuronal differentiation | 
